Assay results: US11883398B2, “Dipeptidylpeptidase 4 inhibition enhances lymphocyte trafficking, improving both naturally occurring tumor immunity and immunotherapy” (INSTITUT PASTEUR, priority 2015, dated 2024)
“Also recorded” adds a separate entry of the source.

Experiments:
CT26 colon carcinoma = test: Subcutaneous CT26 colon carcinoma tumor growth in vivo; set-up: species or system mouse
Description: Mice used were 7-12 weeks old. […] B16F10 and […] (Ovalbumin-expressing B16F10 cells, gift from C. Reis e Sousa) tumor cells were cultured in DMEM (Gibco) supplemented with 10% FCS (PAA), 0.1 mM non-essential amino acids, 1 mM sodium pyruvate, 10 mM Hepes, 70 μM beta-mercaptoethanol and 23 μg/ml gentamycin (all from Gibco). CT26 colon carcinoma cells were cultured in RPMI (Gibco) supplemented as described for DMEM. Cells for injections were passaged 1-2 times after thawing, before use. WT and genetically modified mice were subcutaneously injected with 2×10^5 B16 or 5×10^5 CT26 cells in the shaved right flank. […] For blocking of chemokine and chemokine receptors, WT mice were intraperitoneally injected with 100 μg of hamster a-mCXCR3 (clone CXCR3-173, BioLegend), 100 μg of hamster α-mCCR5 (clone HM-CCR5, BioLegend), 50 μg of rat anti-mCXCL10 (clone 134013, R&D systems) and 20 μg of rat-α-mCXCR4 (clone 2B11/CXCR4, BD Biosciences) or with respective isotype antibodies (hamster IgG (clone HTK888, BioLegend, used as control for mCXCR3 and mCCR5 blockage); rat IgG2a (clone 54447, R&D systems, used as control for mCXCL10 blockade) and rat IgG2b (clone A95-1, BD Biosciences, used as control for mCXCR4 blockade). […] Tumor height and width were measured with a caliper and tumor volume was calculated (Elliptical volume=width^2×height×0.523). […]

B16F10 cells = test: Model of metastatic melanoma (intravenous B16F10, lung metastatic foci); format: in vivo, mouse; conditions: 15 days after intravenous injection of B16F10 cells
Description: (§1) B16F10 and M04 (Ovalbumin-expressing B16F10 cells, gift from C. Reis e Sousa) tumor cells were cultured in DMEM (Gibco) supplemented with 10% FCS (PAA), 0.1 mM non-essential amino acids, 1 mM sodium pyruvate, 10 mM Hepes, 70 μM beta-mercaptoethanol and 23 μg/ml gentamycin (all from Gibco). CT26 colon carcinoma cells were cultured in RPMI (Gibco) supplemented as described for DMEM. Cells for injections were passaged 1-2 times after thawing, before use. WT and genetically modified mice were subcutaneously injected with 2×10^5 B16 or 5×10^5 CT26 cells in the shaved right flank. When indicated, mice received an intra-tumoral injection of 1 μg of recombinant mCXCL10, 5 μg CpG-A in DOPTAP or vehicle control. […] Tumor height and width were measured with a caliper and tumor volume was calculated (Elliptical volume=width^2×height×0.523). […] 15 days after tumor cell injection, lungs were dissected, placed in Fekete's solution and metastatic foci were counted. […]

B16F10 melanoma = test: Subcutaneous B16F10 melanoma tumor growth in vivo; set-up: species or system mouse
Description: Mice used were 7-12 weeks old. […] B16F10 and […] (Ovalbumin-expressing B16F10 cells, gift from C. Reis e Sousa) tumor cells were cultured in DMEM (Gibco) supplemented with 10% FCS (PAA), 0.1 mM non-essential amino acids, 1 mM sodium pyruvate, 10 mM Hepes, 70 μM beta-mercaptoethanol and 23 μg/ml gentamycin (all from Gibco). CT26 colon carcinoma cells were cultured in RPMI (Gibco) supplemented as described for DMEM. Cells for injections were passaged 1-2 times after thawing, before use. WT and genetically modified mice were subcutaneously injected with 2×10^5 B16 or 5×10^5 CT26 cells in the shaved right flank. […] For blocking of chemokine and chemokine receptors, WT mice were intraperitoneally injected with 100 μg of hamster a-mCXCR3 (clone CXCR3-173, BioLegend), 100 μg of hamster α-mCCR5 (clone HM-CCR5, BioLegend), 50 μg of rat anti-mCXCL10 (clone 134013, R&D systems) and 20 μg of rat-α-mCXCR4 (clone 2B11/CXCR4, BD Biosciences) or with respective isotype antibodies (hamster IgG (clone HTK888, BioLegend, used as control for mCXCR3 and mCCR5 blockage); rat IgG2a (clone 54447, R&D systems, used as control for mCXCL10 blockade) and rat IgG2b (clone A95-1, BD Biosciences, used as control for mCXCR4 blockade). […] For CXCL10 neutralization, antibodies were injected on day 2, 5, 8 and 11 after tumor cell injection. For immunotherapy protocols, mice were intraperitoneally injected with 100 μg of mouse α-CTLA-4 (clone 9D9, Bioxcell), 200 μg of PD1 (clone RMP1-14, Bioxcell), a combination of 100 μg of α-CTLA-4+200 μg of a-PD1 or control isotypes (100 μg […] and 200 μg rat IgG2a (clone 2A3), both from Bioxcell) on day 3, 6 and 9 after tumor cell implantation. For adoptive cell transfer experiments, Pmel-1 Thy-1.1^+Thy-1.1^+, Cxcr3^-/- Thy-1.1^+Thy-1.2^+ Pmel-1 or OT1 splenocytes were activated ex-vivo, by incubation with 1 nM of human gp100 (for Pmel-1 cells) or […] (for OT1 cells) peptides for 1h at room temperature with agitation. Splenocytes were then washed and resuspended in R10 supplemented with 30U/mL of recombinant human IL-2. CD8^+ T cells were expanded for 6-7 days before used. […] For analysis of tumor growth, activated OT1 cells were injected intravenously (1×10^5 cells per mouse) into gender matched tumor-bearing mice, 3 days after tumor cell injection. Tumor height and width were measured with a caliper and tumor volume was calculated (Elliptical volume=width^2×height×0.523). […] Lungs with more than 100 metastatic nodules were defined as 100.

[1] = system: M04 (B16F10 transfected with OVA); test: B16-OVA (M04) tumor growth with OT1 adoptive T cell transfer; format: in vivo, mouse
Description: as §1

**Q.** How did the CT26 tumor growth (CT26 colon carcinoma; BALB/c mice, sitagliptin vs control chow) turn out when N[C@@H](CC(=O)N1CCn2c(nnc2C(F)(F)F)C1)Cc1cc(F)c(F)cc1F [sitagliptin] was run?
**A.** marked delay of CT26 tumor growth; also recorded: delayed CT26 growth

**Q.** And the “CT26 tumor growth with CXCR3 blocking antibodies” value (CT26 colon carcinoma; anti-CXCR3 antibody, sitagliptin vs control)?
**A.** loss of protection

**Q.** And the “number of lung metastases” value (B16F10 cells)?
**A.** significantly reduced the number of lung metastases

**Q.** And the “B16F10 tumor growth in Cxcl10-/- mice” value (B16F10 melanoma; Cxcl10-/- mice, sitagliptin vs control)?
**A.** the delayed tumor growth achieved by DPP4 inhibition was absent

**Q.** What about the “B16F10 tumor growth in Cxcr3-/- mice” value (B16F10 melanoma; Cxcr3-/- mice, sitagliptin vs control) of the same compound?
**A.** abrogated the delayed tumor growth

**Q.** And the “B16F10 tumor growth in Dpp4-/- mice” value (B16F10 melanoma; Dpp4-/- mice, sitagliptin vs control chow)?
**A.** did not influence the kinetics of melanoma growth

**Q.** What about the “B16F10 tumor growth in Rag2-/- mice” value (B16F10 melanoma; Rag2-/- mice, sitagliptin vs control) of the same compound?
**A.** the beneficial effects of DPP4 inhibition were lost

**Q.** And the B16F10 tumor growth (B16F10 melanoma; WT mice, sitagliptin vs control chow)?
**A.** reduced tumor growth

**Q.** What about the “B16F10 tumor growth with CXCR4 blocking in vivo” value (B16F10 melanoma; anti-mCXCR4 antibody, sitagliptin vs control) of the same compound?
**A.** did not impact sitagliptin-mediated inhibition of tumor growth

**Q.** And the “B16F10 tumor growth in wild-type animals treated with CXCL10 blocking antibodies” value (B16F10 melanoma; loss of sitagliptin effect as in Cxcl10-/- mice)?
**A.** confirmed

**Q.** And the “growth of established B16F10 tumors” value (B16F10 melanoma; sitagliptin chow started 3, 5 or 7 days after tumor implantation)?
**A.** delay in tumor growth if sitagliptin was administrated within 5 days after tumor cell implantation

**Q.** And the “reduction in tumor size” value ([1]; B16-OVA tumors, day 15)?
**A.** ~50%

**Q.** What about the B16-OVA tumor growth ([1]; monotherapies vs control) of the same compound?
**A.** significant delay
